Measurements from US7759382B2, “Acylated amino acid amidyl pyrazoles and related compounds” (Elan Pharmaceuticals, Inc., priority 2003, dated 2010).

Tested on: β-amyloid peptide release and/or its synthesis
Assay: inhibition of β-amyloid peptide release and/or its synthesis (test not specified)
Type: cell-based
Conditions: statement in words only; no assay or value given

SMILES | inhibits β-amyloid peptide release and/or its synthesis
CC(C)(C)c1cc(NC(=O)c2cccc(Nc3cc(F)cc(F)c3)c2)[nH]n1 [Example 111, N-(5-tert-Butyl-2H-pyrazol-3-yl)-3-(3,5-difluoro-phenylamino)-benzamide] | inhibits β-amyloid peptide release and/or its synthesis
CC(C)(C)c1cc(NC(=O)c2cccc(N(C=O)Cc3cc(F)cc(F)c3)c2)[nH]n1 [Example 110] | inhibits β-amyloid peptide release and/or its synthesis
